{
  "source": "patent US20180008575A1",
  "about": "“METHODS OF TREATING BINGE EATING DISORDER” (Neurovance, Inc., priority 2016, published 2018)",
  "key": {"[1]": {"target": "norepinephrine reuptake (NE) (Homo sapiens, UniProt P23975)", "sequence (P23975 whole entry)": "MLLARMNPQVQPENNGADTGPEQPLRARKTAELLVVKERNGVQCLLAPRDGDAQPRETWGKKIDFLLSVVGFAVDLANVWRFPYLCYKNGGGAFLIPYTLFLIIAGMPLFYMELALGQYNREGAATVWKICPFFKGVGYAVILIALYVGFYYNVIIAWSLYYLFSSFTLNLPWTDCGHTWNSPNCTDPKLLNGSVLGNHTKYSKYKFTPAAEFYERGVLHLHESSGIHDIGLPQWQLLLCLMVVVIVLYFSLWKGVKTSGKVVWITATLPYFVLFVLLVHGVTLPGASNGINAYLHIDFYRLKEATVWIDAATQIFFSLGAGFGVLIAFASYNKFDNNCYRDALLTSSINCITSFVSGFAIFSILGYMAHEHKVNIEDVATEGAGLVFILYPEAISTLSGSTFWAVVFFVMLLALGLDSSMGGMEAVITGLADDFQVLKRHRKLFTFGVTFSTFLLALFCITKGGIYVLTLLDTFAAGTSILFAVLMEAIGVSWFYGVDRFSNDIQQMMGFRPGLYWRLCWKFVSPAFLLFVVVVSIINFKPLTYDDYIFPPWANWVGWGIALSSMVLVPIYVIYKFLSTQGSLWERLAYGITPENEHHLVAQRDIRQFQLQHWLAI", "assay": "norepinephrine reuptake inhibition", "assay_type": "biochemical", "conditions": "unbalanced triple reuptake inhibitor"}, "dopamine reuptake (DA)": {"target": "dopamine reuptake (DA) (Homo sapiens, UniProt Q01959)", "sequence (Q01959 whole entry)": "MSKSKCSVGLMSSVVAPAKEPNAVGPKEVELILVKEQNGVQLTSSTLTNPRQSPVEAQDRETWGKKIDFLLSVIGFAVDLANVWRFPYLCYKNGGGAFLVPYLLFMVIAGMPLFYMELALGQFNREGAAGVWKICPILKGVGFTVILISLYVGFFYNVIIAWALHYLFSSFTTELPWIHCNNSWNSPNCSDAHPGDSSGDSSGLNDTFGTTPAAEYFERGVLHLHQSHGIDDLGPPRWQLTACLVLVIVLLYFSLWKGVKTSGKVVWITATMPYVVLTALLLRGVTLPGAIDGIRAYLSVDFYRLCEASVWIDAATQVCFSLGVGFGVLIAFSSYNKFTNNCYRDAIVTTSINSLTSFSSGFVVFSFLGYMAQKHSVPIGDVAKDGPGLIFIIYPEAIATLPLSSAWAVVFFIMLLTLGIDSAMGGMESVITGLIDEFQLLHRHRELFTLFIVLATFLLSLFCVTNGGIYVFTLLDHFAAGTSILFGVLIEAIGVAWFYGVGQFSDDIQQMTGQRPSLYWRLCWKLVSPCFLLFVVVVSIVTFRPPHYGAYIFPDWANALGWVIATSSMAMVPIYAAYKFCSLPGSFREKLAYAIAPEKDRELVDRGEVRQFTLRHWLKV", "assay": "dopamine reuptake inhibition", "assay_type": "biochemical", "conditions": "fraction of the potency towards NE reuptake"}, "[2]": {"target": "serotonin reuptake (5-HT) (Homo sapiens, UniProt P31645)", "sequence (P31645 whole entry)": "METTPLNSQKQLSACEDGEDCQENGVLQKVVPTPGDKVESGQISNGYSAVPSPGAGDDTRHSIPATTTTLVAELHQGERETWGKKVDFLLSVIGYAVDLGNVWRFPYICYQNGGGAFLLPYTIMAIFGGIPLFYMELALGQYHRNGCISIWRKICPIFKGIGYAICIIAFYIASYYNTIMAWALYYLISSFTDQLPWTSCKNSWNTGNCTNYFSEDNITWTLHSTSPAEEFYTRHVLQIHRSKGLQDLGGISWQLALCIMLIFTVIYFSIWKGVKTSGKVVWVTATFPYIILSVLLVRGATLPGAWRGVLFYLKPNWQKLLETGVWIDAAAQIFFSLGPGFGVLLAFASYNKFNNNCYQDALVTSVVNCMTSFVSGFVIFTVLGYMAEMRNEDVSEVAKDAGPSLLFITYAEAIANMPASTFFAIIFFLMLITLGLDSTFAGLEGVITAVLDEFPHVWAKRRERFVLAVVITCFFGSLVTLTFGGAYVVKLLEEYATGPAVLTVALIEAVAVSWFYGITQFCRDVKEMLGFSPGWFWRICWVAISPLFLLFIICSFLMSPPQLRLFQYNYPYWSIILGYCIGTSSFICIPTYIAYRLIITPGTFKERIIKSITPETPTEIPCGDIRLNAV", "assay": "serotonin reuptake inhibition", "assay_type": "biochemical", "conditions": "fraction of the potency towards NE reuptake"}, "[3]": {"target": "T1, monoamine oxidase A (MAO A) (Homo sapiens, UniProt P21397)", "T1 sequence (P21397 1-527)": "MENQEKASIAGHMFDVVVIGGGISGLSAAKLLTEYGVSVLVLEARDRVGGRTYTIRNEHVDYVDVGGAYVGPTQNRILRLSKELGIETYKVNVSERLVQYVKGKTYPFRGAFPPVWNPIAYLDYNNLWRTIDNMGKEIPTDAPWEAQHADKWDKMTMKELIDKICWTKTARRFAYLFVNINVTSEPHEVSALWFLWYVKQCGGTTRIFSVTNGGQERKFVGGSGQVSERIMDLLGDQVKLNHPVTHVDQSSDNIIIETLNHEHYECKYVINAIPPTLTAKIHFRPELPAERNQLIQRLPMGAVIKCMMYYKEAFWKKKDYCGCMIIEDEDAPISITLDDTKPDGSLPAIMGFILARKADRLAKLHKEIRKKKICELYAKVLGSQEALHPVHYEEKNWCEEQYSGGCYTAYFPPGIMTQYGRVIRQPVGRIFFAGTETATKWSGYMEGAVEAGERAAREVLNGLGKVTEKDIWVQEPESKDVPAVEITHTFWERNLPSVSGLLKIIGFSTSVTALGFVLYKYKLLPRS", "assay": "metabolic pathway"}},
  "data": [
    {"smiles": "c1ccc2cc([C@]34CNC[C@H]3C4)ccc2c1", "note": "[(1R,5S)-1-(naphthalen-2-yl)-3-azabicyclo[3.1.0]hexane]", "values": [
      {"measurement": "potency towards norepinephrine reuptake (relative rank among NE, DA, 5-HT)", "setting": "[1]", "value": "most potency towards norepinephrine reuptake"},
      {"measurement": "potency towards dopamine reuptake relative to norepinephrine reuptake", "setting": "dopamine reuptake (DA)", "value": "one-sixth"},
      {"measurement": "potency towards serotonin reuptake relative to norepinephrine reuptake", "setting": "[2]", "value": "one-fourteenth"},
      {"measurement": "primary metabolising enzyme", "setting": "[3]", "value": "primarily metabolized by monoamine oxidase A (MAO A)"}
    ]}
  ]
}
